In US20210154188A1, “ALK5 INHIBITORS, CONJUGATES, AND USES THEREOF” (SILVERBACK THERAPEUTICS, INC., priority 2018, published 2021) one finds IC50 data, which are given here for 21 compounds.

Broadly, the IC50 is the point on the concentration scale where inhibition reaches its midpoint. A low value points to inhibition by little substance.

For one assay, the target named is T1, ALK5 (Homo sapiens, UniProt P36897).
T1 construct: purchased Reaction Biology Corp (Malvern, PA)
T1 sequence (P36897 34-503): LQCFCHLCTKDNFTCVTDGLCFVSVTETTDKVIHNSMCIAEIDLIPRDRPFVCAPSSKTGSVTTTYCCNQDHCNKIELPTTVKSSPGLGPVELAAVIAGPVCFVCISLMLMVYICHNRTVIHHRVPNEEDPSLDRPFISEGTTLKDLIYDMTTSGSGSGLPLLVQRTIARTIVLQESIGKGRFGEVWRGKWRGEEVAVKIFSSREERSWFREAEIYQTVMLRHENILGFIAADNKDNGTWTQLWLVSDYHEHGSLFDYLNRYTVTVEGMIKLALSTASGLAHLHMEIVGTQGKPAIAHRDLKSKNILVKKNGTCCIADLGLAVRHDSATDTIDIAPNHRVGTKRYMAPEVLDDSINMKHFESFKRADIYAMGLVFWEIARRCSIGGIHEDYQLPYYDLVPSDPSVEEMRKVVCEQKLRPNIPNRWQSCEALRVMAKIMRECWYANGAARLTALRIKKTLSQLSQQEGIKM
Put plainly: ALK5 enzyme inhibition assay (33P-ATP filter-binding, Reaction Biology Corp). Particulars: casein substrate 1 mg/mL, 10 uM ATP. It counts as biochemical. How it is done:
ALK5 enzyme inhibition assays were performed by Reaction Biology Corp (Malvern, PA). 1 mg/mL of peptide subtrate (casein) and 10 uM ATP were prepared in a mixture of fresh reaction buffer. The kinase was delivered into the substrate solution which was gently mixed. Compounds in 100% DMSO were added to the kinase reaction mixture by Acoustic technology (Echo550; nanoliter range) and the mixture was incubated for 20 min at room temperature. ^33P-ATP (Specific activity 10 uCi/uL) was added into the reaction mixture to initiate the reaction and the reaction mixture was incubated for 2 hours at room temperature. Radioactivity was detected by filter-binding method and kinase activity data were expressed as the percent remaining kinase activity in test samples compared to vehicle (dimethyl sulfoxide) reactions. IC50 values and curve fits were obtained using Prism (GraphPad Software).

Assay [1] deals with TGFb/SMAD Signaling Pathway SBE reporter cell line. Put plainly: TGFb reporter assay (luciferase). It counts as cell-based. Particulars: 5-6 h preincubation, then TGFb, 18 h, luminescence. How it is done:
TGFb/SMAD Signaling Pathway SBE reporter cell line was obtained from BPS Bioscience. Cells were passed/expanded/stored in liquid nitrogen per supplier's instruction with the exception that growth media was changed to DMEM-C with Geneticin (DMEM supplemented with 10% fetal bovine serum, 1× NEAA, 1 mM Pyruvate, 2 mM glutamine, 50 μg/mL penicillin, 50 U/mL streptomycin and 400 ug/mL of Geneticin). The assay media was MEM supplemented with 0.5% fetal bovine serum, 1× NEAA, 1 mM Pyruvate, 50 μg/mL penicillin and 50 U/mL streptomycin.
Reporter cells were harvested from the tissue culture flasks by incubation in small quantity of Versene at room temperature for three to five minutes after the media in the flask was removed and cells rinsed with PBS. Cells were counted and diluted in the assay media at ˜0.8×10^6 cells/mL then 50 uL/well were added to 96-well assay plate. Test samples (at desired concentrations diluted in assay media) were added to assay plate containing the 50 uL/well of cells (or media only), 50 uL per well, and incubated for 5-6 hours at 37° C. in a 5% CO2 humidified incubator. After that time, 15 uL of TGFb diluted to 12.5 ng/mL in the assay media was added to the plate. Controls included TGFb titration (from 25 to 0 ng/mL) without inhibitors, and media only (without cells, inhibitor or TGFb). Plates were incubated at 37° C. in a 5% CO2 humidified incubator for 18 h. Luciferase substrate solution was subsequently added at 75 uL per well, incubated in dark with shaking at room temperature for 10 min, and luminescence was measured using a luminometer.
A general note: In a reporter assay the amount or activity of a reporter protein is the signal.

As for `Cc1cccc(-c2nc(CNC3CC3)[nH]c2-c2ccc3ncnn3c2)n1` [Compound 1.7, N-((5-([1,2,4]triazolo[1,5-a]pyridin-6-yl)-4-(6-methylpyridin-2-yl)-1H-imidazol-2-yl)methyl)-cyclopropanamine], the IC50 at ALK5 lay within 1000 to 10000 nM; in assay [1] it was 100 to 1000 nM.
In the same order, the values of `Cc1cccc(-c2nc(CNCC3CC3)[nH]c2-c2ccc3ncnn3c2)n1` [Compound 1.8, 1-(5-([1,2,4]triazolo[1,5-a]pyridin-6-yl)-4-(6-methylpyridin-2-yl)-1H-imidazol-2-yl)-N-(cyclopropyl-methyl)methanamine] are 1000 to 10000 nM and 100 to 1000 nM.
In the same order, the values of `Cc1cccc(-c2nc(CNC3CCC3)[nH]c2-c2ccc3ncnn3c2)n1` [Compound 1.10, 1-(5-([1,2,4]triazolo[1,5-a]pyridin-6-yl)-4-(6-methylpyridin-2-yl)-1H-imidazol-2-yl)-N-(cyclobutyl)methanamine] are 1000 to 10000 nM and 100 to 1000 nM.
In the same order, the values of `Cc1cccc(-c2nc(CNC3CCCC3)[nH]c2-c2ccc3ncnn3c2)n1` [Compound 1.11, 1-(5-([1,2,4]triazolo[1,5-a]pyridin-6-yl)-4-(6-methylpyridin-2-yl)-1H-imidazol-2-yl)-N-(cyclopentyl)methanamine] are 100 to 1000 nM and 10 to 100 nM.
Turning to `Cc1cccc(-c2nc(CNC3CCCCC3)[nH]c2-c2ccc3ncnn3c2)n1` [Compound 1.12, 1-(5-([1,2,4]triazolo[1,5-a]pyridin-6-yl)-4-(6-methylpyridin-2-yl)-1H-imidazol-2-yl)-N-(cyclohexyl)methanamine], the half-inhibitory concentration (IC50) is 100 to 1000 nM on ALK5 and 10 to 100 nM in assay [1].
In the same order, the values of `Cc1cccc(-c2nc(CNC3CCCCCC3)[nH]c2-c2ccc3ncnn3c2)n1` [Compound 1.13, 1-(5-([1,2,4]triazolo[1,5-a]pyridin-6-yl)-4-(6-methylpyridin-2-yl)-1H-imidazol-2-yl)-N-(cycloheptyl)methanamine] are 100 to 1000 nM and 10 to 100 nM.
The matching figures for `Cc1cccc(-c2nc(CNC3CCOCC3)[nH]c2-c2ccc3ncnn3c2)n1` [Compound 1.14, 1-(5-([1,2,4]triazolo[1,5-a]pyridin-6-yl)-4-(6-methylpyridin-2-yl)-1H-imidazol-2-yl)-N-(4-tetrahydropyranyl)methanamine]: 100 to 1000 nM and 10 to 100 nM.
For `Cc1cccc(-c2nc(CNc3cncc(CN)c3)[nH]c2-c2ccc3ncnn3c2)n1` [Compound 1.19, N-((5-([1,2,4]triazolo[1,5-a]pyridin-6-yl)-4-(6-methylpyridin-2-yl)-1H-imidazol-2-yl)methyl)-5-(aminomethyl)pyridin-3-amine], the figures for the IC50 (at ALK5; in assay [1]) were 1000 to 10000 nM and 100 to 1000 nM, respectively.
Take `CC(=O)NC1Cc2ccc(NCc3nc(-c4cccc(C)n4)c(-c4ccc5ncnn5c4)[nH]3)cc2C1` (stereo not drawn) [Compound 1.25, N-(5-(((5-([1,2,4]triazolo[1,5-a]pyridin-6-yl)-4-(6-methylpyridin-2-yl)-1H-imidazol-2-yl)methyl)amino)-2,3-dihydro-1H-inden-2-yl)acetamide]: the IC50 (at ALK5; in assay [1]) was 100 to 1000 nM each time.
Regarding `Cc1cccc(-c2nc(CNC3Cc4ccccc4C3)[nH]c2-c2ccc3ncnn3c2)n1` [Compound 1.27, N-((5-([1,2,4]triazolo[1,5-a]pyridin-6-yl)-4-(6-methylpyridin-2-yl)-1H-imidazol-2-yl)methyl)-2,3-dihydro-1H-inden-2-amine], the values for the IC50 (at ALK5; in assay [1]) were 100 to 1000 nM and 10 to 100 nM, respectively.
With `Cc1cccc(-c2nc(CN[C@@H]3CCc4ccccc43)[nH]c2-c2ccc3ncnn3c2)n1` [Compound 1.30, (R)-N-((5-([1,2,4]triazolo[1,5-a]pyridin-6-yl)-4-(6-methylpyridin-2-yl)-1H-imidazol-2-yl)methyl)-2,3-dihydro-1H-inden-1-amine], the IC50 on ALK5 lay in the range of 100 to 1000 nM; in assay [1] it was 10 to 100 nM.
In the same order, the values of `Cc1cccc(-c2nc(CNc3cccc4c3CNC4)[nH]c2-c2ccc3ncnn3c2)n1` [Compound 1.31, N-((5-([1,2,4]triazolo[1,5-a]pyridin-6-yl)-4-(6-methylpyridin-2-yl)-1H-imidazol-2-yl)methyl)isoindolin-4-amine] are 100 to 1000 nM and 100 to 1000 nM.
Regarding `Cc1cccc(-c2nc(CN[C@H]3CCCC[C@@H]3F)[nH]c2-c2ccc3ncnn3c2)n1` [Compound 1.32, (1S,2S)-N-((5-([1,2,4]triazolo[1,5-a]pyridin-6-yl)-4-(6-methylpyridin-2-yl)-1H-imidazol-2-yl)methyl)-2-fluorocyclohexan-1-amine], the results for the IC50 (at ALK5; in assay [1]) were 10 to 100 nM and 100 to 1000 nM, respectively.
In the same order, the values of `Cc1cccc(-c2nc(CN3CCCCC3)[nH]c2-c2ccn3ncnc3c2)n1` [Compound 1.35, 7-(4-(6-methylpyridin-2-yl)-2-(piperidin-1-ylmethyl)-1H-imidazol-5-yl)-[1,2,4]triazolo[1,5-a]pyridine] are 1000 to 10000 nM and 100 to 1000 nM.
Consider `Cc1cccc(-c2nc(CN3CCc4ccccc4C3)[nH]c2-c2ccn3ncnc3c2)n1` [Compound 1.40, 2-((5-([1,2,4]triazolo[1,5-a]pyridin-7-yl)-4-(6-methylpyridin-2-yl)-1H-imidazol-2-yl)methyl)-1,2,3,4-tetrahydroisoquinoline], for which the IC50 (at ALK5; in assay [1]) was 100 to 1000 nM in each case.
For the compound `Cc1cccc(-c2nc(CNCc3ccc4c(c3)OCO4)[nH]c2-c2ccc3ncnn3c2)n1` [Compound 1.41, 1-(5-([1,2,4]triazolo[1,5-a]pyridin-6-yl)-4-(6-methylpyridin-2-yl)-1H-imidazol-2-yl)-N-(benzo[d][1,3]dioxol-5-ylmethyl)methanamine], the IC50 (at ALK5; in assay [1]) was 100 to 1000 nM each time.
Consider `Cc1cccc(-c2nc(CNCC3CCCCC3)[nH]c2-c2ccc3ncnn3c2)n1` [Compound 1.42, 1-(5-([1,2,4]triazolo[1,5-a]pyridin-6-yl)-4-(6-methylpyridin-2-yl)-1H-imidazol-2-yl)-N-(cyclohexylmethyl)methanamine], for which the results for the 50% inhibitory concentration (IC50) (at ALK5; in assay [1]) were 100 to 1000 nM and 10 to 100 nM, respectively.
The matching figures for `Cc1cccc(-c2nc(CN[C@H]3c4ccccc4C[C@H]3O)[nH]c2-c2ccc3ncnn3c2)n1` [Compound 1.43, (1S,2R)-1-(((5-([1,2,4]triazolo[1,5-a]pyridin-6-yl)-4-(6-methylpyridin-2-yl)-1H-imidazol-2-yl)methyl)amino)-2,3-dihydro-1H-inden-2-ol]: 10 to 100 nM and 10 to 100 nM.
The matching figures for `Cc1cccc(-c2nc(CN[C@@H]3c4ccccc4C[C@@H]3O)[nH]c2-c2ccc3ncnn3c2)n1` [Compound 1.44, (1R,2S)-1-(((5-([1,2,4]triazolo[1,5-a]pyridin-6-yl)-4-(6-methylpyridin-2-yl)-1H-imidazol-2-yl)methyl)amino)-2,3-dihydro-1H-inden-2-ol]: 100 to 1000 nM and 10 to 100 nM.
With `Cc1cccc(-c2nc(CN[C@H]3c4ccccc4C[C@@H]3O)[nH]c2-c2ccc3ncnn3c2)n1` [Compound 1.45, (1S,2S)-1-(((5-([1,2,4]triazolo[1,5-a]pyridin-6-yl)-4-(6-methylpyridin-2-yl)-1H-imidazol-2-yl)methyl)amino)-2,3-dihydro-1H-inden-2-ol], the IC50 lay within 100 to 1000 nM at ALK5 and 10 to 100 nM in assay [1].
In the same order, the values of `Cc1cccc(-c2nc(CN[C@@H]3c4ccccc4C[C@H]3O)[nH]c2-c2ccc3ncnn3c2)n1` [Compound 1.46, (1R,2R)-1-(((5-([1,2,4]triazolo[1,5-a]pyridin-6-yl)-4-(6-methylpyridin-2-yl)-1H-imidazol-2-yl)methyl)amino)-2,3-dihydro-1H-inden-2-ol] are 100 to 1000 nM and 10 to 100 nM.
